Data from publication PMC7587962, “Evaluation of Cytotoxicity and α-Glucosidase Inhibitory Activity of Amide and Polyamino-Derivatives of Lupane Triterpenoids” (Molecules, 2020).
Read-outs that look alike come from different tables or passages of the source.

Tests used:
[1] = test system: 60 human tumor cell lines; test: cells
HCT-116 = test: NCI-60 SRB screen: colon cancer HCT-116; format: cell-based; conditions: Homo sapiens, 48 h; HCT-116; single dose 10 µM; read-out: Percentage Cell Growth
IGROV1 = test: NCI-60 SRB screen: ovarian cancer IGROV1; format: cell-based, human; conditions: IGROV1; single dose 10 µM
HT29 = test: NCI-60 SRB screen: colon cancer HT29; format: cell-based; conditions: Homo sapiens, HT-29, 48 h; HT29; single dose 10 µM; read-out: Percentage Cell Growth
COLO 205 = test: NCI-60 SRB screen: colon cancer COLO 205; format: cell-based, human; conditions: COLO 205; single dose 10 µM
MCF7 = test: NCI-60 SRB screen: breast cancer MCF7; format: cell-based; conditions: Homo sapiens, 48 h; MCF7; single dose 10 µM; read-out: Percentage Cell Growth
NCI-H460 = test: NCI-60 SRB screen: non-small cell lung cancer NCI-H460; format: cell-based; conditions: Homo sapiens, 48 h; NCI-H460; single dose 10 µM; read-out: Percentage Cell Growth
LOX IMVI = test: NCI-60 SRB screen: melanoma LOX IMVI; format: cell-based, human; conditions: single dose 10 µM
K-562 = test: NCI-60 SRB screen: leukemia K-562; format: cell-based, human; conditions: K-562; single dose 10 µM
MOLT-4 = test: NCI-60 SRB screen: leukemia MOLT-4; format: cell-based; conditions: Homo sapiens, 48 h; MOLT-4; single dose 10 µM; read-out: Percentage Cell Growth
OVCAR-8 = test: NCI-60 SRB screen: ovarian cancer OVCAR-8; format: cell-based, human; conditions: OVCAR-8; single dose 10 µM
KM12 = test: NCI-60 SRB screen: colon cancer KM12; format: cell-based, human; conditions: KM12; single dose 10 µM
SR = test: NCI-60 SRB screen: leukemia SR; format: cell-based; conditions: Homo sapiens, 48 h, single dose 10 µM, read-out: Percentage Cell Growth
SW-620 = test: NCI-60 SRB screen: colon cancer SW-620; format: cell-based; conditions: Homo sapiens, 48 h; SW-620; single dose 10 µM; read-out: Percentage Cell Growth
U251 = test: NCI-60 SRB screen: CNS cancer U251; format: cell-based; conditions: Homo sapiens, U-251, 48 h; U251; single dose 10 µM; read-out: Percentage Cell Growth
CCRF-CEM = test: NCI-60 SRB screen: leukemia CCRF-CEM; format: cell-based; conditions: Homo sapiens, 48 h, single dose 10 µM, read-out: Percentage Cell Growth
RPMI-8226 = test: NCI-60 SRB screen: leukemia RPMI-8226; format: cell-based; conditions: Homo sapiens, 48 h; RPMI-8226; single dose 10 µM; read-out: Percentage Cell Growth
HL-60(TB) = test: NCI-60 SRB screen: leukemia HL-60(TB); format: cell-based; conditions: Homo sapiens, 48 h; HL-60(TB); single dose 10 µM; read-out: Percentage Cell Growth
[2] = test system: Rat Liver ER Neutral α-Glucosidase; test: Endoplasmic reticulum α-glucosidase activity assay; format: biochemical
Source text: Betulinic acid inhibits yeast α-glucosidase activity and interferes with N-linked glycan modifications to cell-surface intercellular adhesion molecule-1 (ICAM-1) in human lung carcinoma A549 cells in a similar manner to castanospermine, an inhibitor of endoplasmic reticulum α-glucosidases I and II [66]. […] Taken together, these considerations prompted us to evaluate a series of lupanes with amide function or polyamine chain 11, 12, 16, 18, and 22–26 for α-glucosidase inhibition. Initially, they were screened against α-glucosidase of S. cerevisiae as an accessible and high-throughput model. Confirmatory experiments were performed on isolated rough endoplasmic reticulum vesicles from rat liver, which contain neutral α-glucosidases I and II in a membrane-bound form.
Endoplasmic reticulum was isolated from hepatocytes of decapitated male Sprague-Dawley rats, which were starved overnight and sacrificed the next morning. All experiments were approved by Volgograd regional ethic committee. The whole procedure was performed at 4 °C. In brief, a fresh tissue sample from an animal was washed twice with 10 mL of PBS to remove residual blood. The tissue was placed on a paper towel in order to absorb excess liquid and blood clots, if present. It was cut further into small pieces (1.5–2 cm) and washed once more. […] Homogenate was centrifuged at 1000× g for 10 min at 4 °C. After removal of the floating lipid layer by aspiration, supernatant was separated and centrifuged at 12,000× g for 15 min. at 4 °C. The supernatant fraction, which is the post mitochondrial fraction (PMF), was used for isolation of rough endoplasmic reticulum (RER) enriched microsomes by precipitation with 8 mM CaCl2 added dropwise. The final concentration of CaCl2 was 7 mM. Resulting sample was centrifuged at 8000 g for 10 min. at 4 °C. The supernatant was discarded, and the pellet was suspended in isotonic extraction buffer (0.3 mL of buffer for each g of original tissue). The suspension was homogenized completely to afford RER enriched microsomes. In a 96-well flat transparent plate 25 µL of the isolated RER microsomes were incubated with 50 µL of test compounds in 67 mM PBS (pH 6.8) at 37 °C for 10 min. Then, p-nitrophenyl-α-D-glucopyranoside (Sigma #N1377, St. Louis, MO, USA) was added to 1 mM final concentration and increase in absorbance was recorded for 42 min at 405 nm wavelength with Infinite M200 PRO microplate reader (Tecan, Austria). Concentration of RER microsomes was adjusted to achieve an increase in optical density of ~0.2 in control samples after 30 min. of incubation. Test compounds were prepared as described above for the yeast α-glucosidase assay.

MDA-MB-231/ATCC = test: NCI-60 SRB screen: breast cancer MDA-MB-231/ATCC; format: cell-based; conditions: Homo sapiens, 48 h; MDA-MB-231/ATCC; single dose 10 µM; read-out: Percentage Cell Growth
PC-3 = test: NCI-60 SRB screen: prostate cancer PC-3; format: cell-based, human; conditions: PC-3; single dose 10 µM
SF-295 = test: NCI-60 SRB screen: CNS cancer SF-295; format: cell-based, human; conditions: SF-295; single dose 10 µM
CAKI-1 = test: NCI-60 SRB screen: renal cancer CAKI-1; format: cell-based, human; conditions: CAKI-1; single dose 10 µM
UO-31 = test: NCI-60 SRB screen: renal cancer UO-31; format: cell-based, human; conditions: UO-31; single dose 10 µM
SK-MEL-5 = test: NCI-60 SRB screen: melanoma SK-MEL-5; format: cell-based, human; conditions: SK-MEL-5; single dose 10 µM
HOP-92 = test: NCI-60 SRB screen: non-small cell lung cancer HOP-92; format: cell-based, human; conditions: HOP-92; single dose 10 µM
SNB-75 = test: NCI-60 SRB screen: CNS cancer SNB-75; format: cell-based, human; conditions: SNB-75; single dose 10 µM
T-47D = test: NCI-60 SRB screen: breast cancer T-47D; format: cell-based, human; conditions: T-47D; single dose 10 µM
ACHN = test: NCI-60 SRB screen: renal cancer ACHN; format: cell-based, human; conditions: single dose 10 µM

SMILES: C=C(C)[C@@H]1CC[C@]2(C(=O)NCCCC[C@@H](N)C(=O)OC)CC[C@]3(C)[C@H](CC[C@@H]4[C@@]5(C)CCC(=O)C(C)(C)[C@@H]5CC[C@]43C)[C@@H]12 [Compound 17]
- activity at 10 µM ([1]; read-out: Mean Growth, %): 98.7%
- activity at 10 µM ([1]; read-out: Range of Growth, %): 79.2 to 111%

SMILES: C=C(C)[C@@H]1CC[C@]2(C(=O)NCCCCCCN(CCCN)CCCN)CC[C@]3(C)[C@H](CC[C@@H]4[C@@]5(C)CC[C@H](OCCCN)C(C)(C)[C@@H]5CC[C@]43C)[C@@H]12 [Compound 19]
- activity at 10 µM (HCT-116): 12.6%
- Percentage Cell Growth (IGROV1): 27.33%
- activity at 10 µM (HT29): 4.21%
- Percentage Cell Growth (COLO 205): 18.88%
- activity at 10 µM (MCF7): 14.5%
- activity at 10 µM (NCI-H460): -16.2%
- Percentage Cell Growth (LOX IMVI): 5.71%
- Percentage Cell Growth (K-562): 1.52%
- activity at 10 µM (MOLT-4): 10.1%
- Percentage Cell Growth (OVCAR-8): −28.27%
- Percentage Cell Growth (KM12): 31.48%
- activity at 10 µM (SR): 18.4%
- activity at 10 µM ([1]; read-out: Mean Growth, %): 63%
- activity at 10 µM ([1]; read-out: Range of Growth, %): -39.5 to 141%
- activity at 10 µM (SW-620): 7.33%
- activity at 10 µM (U251): -39.5%
- activity at 10 µM (CCRF-CEM): 11.8%
- activity at 10 µM (RPMI-8226): 29.3%

SMILES: C=C(C)[C@@H]1CC[C@]2(C(N)=O)CC[C@]3(C)[C@H](CC[C@@H]4[C@@]5(C)CCC(=O)C(C)(C)[C@@H]5CC[C@]43C)[C@@H]12 [Compound 9]
- activity at 10 µM (HL-60(TB)): 25.9%
- activity at 10 µM ([1]; read-out: Mean Growth, %): 72%
- activity at 10 µM ([1]; read-out: Range of Growth, %): 25.9 to 115%

SMILES: C[C@H]1O[C@H](O[C@H]2[C@H](O)[C@@H](O)[C@@H](O[C@H]3[C@H](O)[C@@H](O)C(O)O[C@@H]3CO)O[C@@H]2CO)[C@H](O)[C@@H](O)[C@@H]1N[C@H]1C=C(CO)[C@@H](O)[C@H](O)[C@H]1O (some centres unmarked) [Acarbose, reference compound]
- Rat Liver ER Neutral α-Glucosidase Inhibition, m ± SD ([2]; 10 μM): 5.68 ± 4.68%
- Rat Liver ER Neutral α-Glucosidase Inhibition, m ± SD ([2]; 100 μM): 24.09 ± 6.48%
- Rat Liver ER Neutral α-Glucosidase Inhibition, m ± SD ([2]; 1 mM): 74.55 ± 3.76%

SMILES: C=C(C)[C@@H]1CC[C@]2(C(=O)NCCCCCCN(CCCN)CCCN)CC[C@]3(C)[C@H](CC[C@@H]4[C@@]5(C)CC[C@H](O)C(C)(C)[C@@H]5CC[C@]43C)[C@@H]12 [Compound 8]
- activity at 10 µM (HT29): 24.3%
- activity at 10 µM ([1]; read-out: Mean Growth, %): 80.5%
- activity at 10 µM ([1]; read-out: Range of Growth, %): 20.4 to 135%
- activity at 10 µM (MDA-MB-231/ATCC): 20.4%

SMILES: C=C(C)[C@@H]1CC[C@]2(C(=O)NCCNCCN)CC[C@]3(C)[C@H](CC[C@@H]4[C@@]5(C)CC[C@H](O)C(C)(C)[C@@H]5CC[C@]43C)[C@@H]12 [Compound 7]
- activity at 10 µM ([1]; read-out: Mean Growth, %): 99.2%
- activity at 10 µM ([1]; read-out: Range of Growth, %): 53.8 to 147%

SMILES: C=C(C)[C@@H]1CC[C@]2(C(=O)NN(CCN(CCNC(=O)OC(C)(C)C)C(=O)OC(C)(C)C)C(=O)OC(C)(C)C)CC[C@]3(C)[C@H](CC[C@@H]4[C@@]5(C)CCC(=O)C(C)(C)[C@@H]5CC[C@]43C)[C@@H]12 [Compound 15]
- activity at 10 µM ([1]; read-out: Mean Growth, %): 90.1%
- activity at 10 µM ([1]; read-out: Range of Growth, %): 56.8 to 114%

SMILES: C=C(C)[C@@H]1CC[C@]2(C(=O)NCCCCCCN(CCCN)CCCN)CC[C@]3(C)[C@H](CC[C@@H]4[C@@]5(C)CCC(=O)C(C)(C)[C@@H]5CC[C@]43C)[C@@H]12 [Compound 13]
- activity at 10 µM ([1]; read-out: Mean Growth, %): 105%
- activity at 10 µM ([1]; read-out: Range of Growth, %): 85.8 to 118%

SMILES: C=C(C)[C@@H]1CC[C@]2(C(=O)NCCN(CCNC(=O)OC(C)(C)C)C(=O)OC(C)(C)C)CC[C@]3(C)[C@H](CC[C@@H]4[C@@]5(C)CCC(=O)C(C)(C)[C@@H]5CC[C@]43C)[C@@H]12 [Compound 14]
- Percentage Cell Growth (PC-3): 19.12%
- activity at 10 µM (HCT-116): 17.5%
- Percentage Cell Growth (SF-295): 31.97%
- Percentage Cell Growth (CAKI-1): 18.57%
- activity at 10 µM (HT29): 23.7%
- activity at 10 µM (MCF7): 22.2%
- activity at 10 µM (NCI-H460): 20.6%
- activity at 10 µM (MOLT-4): 11.7%
- activity at 10 µM (HL-60(TB)): -14.3%
- Percentage Cell Growth (UO-31): 17.41%
- activity at 10 µM ([1]; read-out: Mean Growth, %): 36.6%
- Percentage Cell Growth (SK-MEL-5): −8.44%
- activity at 10 µM (SW-620): 28.8%
- activity at 10 µM (U251): 27.9%
- Percentage Cell Growth (HOP-92): 8.07%
- Percentage Cell Growth (SNB-75): 23.86%
- activity at 10 µM (CCRF-CEM): 14.9%
- activity at 10 µM (MDA-MB-231/ATCC): -33.8%
- Percentage Cell Growth (T-47D): 28.02%
- Percentage Cell Growth (ACHN): 23.51%
- activity at 10 µM (RPMI-8226): 22.2%

SMILES: C=C(C)[C@@H]1CC[C@]2(C(=O)N3CCNCC3)CC[C@]3(C)[C@H](CC[C@@H]4[C@@]5(C)CCC(=O)C(C)(C)[C@@H]5CC[C@]43C)[C@@H]12 [Compound 20]
- activity at 10 µM ([1]; read-out: Mean Growth, %): 101%
- activity at 10 µM ([1]; read-out: Range of Growth, %): 87.8 to 111%
